# Where two headings read alike, the source gives them in different places. Where a SMILES comes first, the peptide text is derived from it.
# How the values were obtained:
# S. aureus ATCC 29213 = test: Killing kinetics (time kill assay); format: cell-based, Staphylococcus aureus; settings: MHB, 35°C, sampled 1-24 hours, n = 2
# Protocol: The killing kinetics assay was conducted using mid-logarithmic phase cultures of E. coli ATCC 25922 and S. aureus ATCC 29213 in MHB. Cultures were adjusted to a 0.5 McFarland standard, diluted in MHB, and then 100µL was added to each culture tube containing 10mL pre-warmed MHB to give a final inoculum concentration of 5 x 10^5 CFU/mL. A sterility control of 100uL MHB, growth control (no cathelicidin), and vehicle control (DMSO) were also included. Furthermore, 10uL was immediately removed from the growth control tube, diluted 1/1000 in saline and 100µL plated onto MHA in duplicate to confirm inoculum density. To establish colony counts from 0 hours of cathelicidin treatment, 200µL was removed from each culture tube and serially diluted ten-fold in saline from 10^0 to […] in a total volume of 200µL. Then, 10µL of each dilution was spotted onto MHA in duplicate, which were incubated at 35°C for 24 hours.
# All culture tubes were then incubated at 35°C static. At 1, 2, 4, 6, 8, 10, 12, and 24 hours post-cathelicidin treatment, 200µL was removed from each culture tube for dilution and plated on MHA as described above. […] Counts of duplicates were averaged, and the log10 CFU/mL graphed against time. This was used as input for one-way ANOVA (p < 0.05) followed by Dunnett’s post hoc test.
# [1] = test system: Pseudomonas aeruginosa clinical isolate - animal; test: microbe, parasite or virus in culture; format: cell-based; settings: clinical isolate - animal; read-out: MIC P. aeruginosa
# Method in brief: (§1)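 MIC read visually as the lowest peptide concentration with no growth versus negative control, after 20–24 h at 35°C. Peptides were tested in duplicate 64-0.125μg/mL (final) in MHB or cation-supplemented MH II B, some with 10% lysed horse blood; inoculum 5 x 10^5 CFU/mL.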
# [2] = test system: Staphylococcus aureus ATCC 29213; test: microbe, parasite or virus in culture; format: cell-based
# Method in brief: as §1
# [3] = test system: Staphylococcus aureus clinical isolate - animal; test: microbe, parasite or virus in culture; format: cell-based
# Method in brief: as §1
# [4] = test system: Pseudomonas aeruginosa ATCC 27853; test: microbe, parasite or virus in culture; format: cell-based; settings: ATCC 27853; read-out: MIC P. aeruginosa ATCC
# Method in brief: as §1
# [5] = test system: Escherichia coli clinical isolate - animal; test: microbe, parasite or virus in culture; format: cell-based
# Method in brief: as §1
# [6] = test system: Escherichia coli ATCC 25922; test: microbe, parasite or virus in culture; format: cell-based
# Method in brief: as §1
# [7] = test system: three fungi (Candida krusei, Candida parapsilosis, Candida albicans); test: Antifungal screening, summary over the panel of fungi (broth microdilution); format: cell-based; settings: synthesized mature peptide; antimicrobial screening Phase I; Y/N summary over fungi tested, broth microdilution
# Protocol: Antimicrobial testing of 78 cathelicidin MPs was performed in two phases as outlined in Figure 1 . In phase I, 40 peptides (27 extant and 13 ancestral) were selected for testing based on rank (outlined above) and similarity to published marsupial cathelicidins with known antimicrobial activity ([33], [41]–[43]). These peptides were tested against nine bacteria (Staphylococcus aureus ATCC 29213 and clinical isolate, Escherichia coli ATCC 25922 and clinical isolate, Pseudomonas aeruginosa ATCC 27853 and clinical isolate, Streptococcus agalactiae ATCC 12386 and clinical isolate, Streptococcus pneumoniae ATCC 49619) and three fungi (Candida krusei ATCC 6258, Candida parapsilosis ATCC 22019, and Candida albicans clinical isolate). Details regarding these strains are available in Supplementary Table 4 . The antimicrobial activity of cathelicidins was determined as the minimum inhibitory concentration (MIC), which was the lowest concentration of cathelicidin that prevented visible bacterial or fungal growth, relative to the negative control. […] Minimum bactericidal concentration (MBC) and/or minimum fungicidal concentration (MFC) was conducted to determine microbicidal versus static action. Activity against S. aureus ATCC, E. coli ATCC, and Pseudomonas aeruginosa ATCC 27853 was examined in the presence of divalent cations to determine the impact of inhibitors.
# Antimicrobial activity was determined using a broth microdilution susceptibility assay in 96 well polypropylene plates according to Clinical Laboratory Standards Institute guidelines M07-A and M26A as described previously ([33], [42], [43]). The bacterial and fungal isolates from humans and animals used in this study are outlined in Supplementary Table 4 . Only yeasts were included in the panel of fungi as they have been used in the susceptibility testing of eutherian ([3], [81]–[83]) and other marsupial cathelicidins previously ([33], [42], [43]). Cathelicidin mature peptides were solubilized in DMSO and serially diluted in duplicate from 128-0.25μg/mL in a final volume of 100µL. For bacteria, cathelicidins were diluted in Mueller Hinton Broth (MHB) with or without 10% lysed horse blood, and with (MH II B) or without (MHB) calcium and magnesium cations. For fungi, cathelicidins were diluted in Roswell Park Memorial Institute medium (RPMI)-1640 MOPS. Ampicillin or tetracycline were included as a positive control for Gram-positive and -negative bacteria respectively, while amphotericin B was used for fungi. A media-only negative control and growth control (no cathelicidin) were also included on each plate. Bacteria were sub-cultured on Muller Hinton agar (MHA) or sheep blood agar (BA), and fungi on Sabouraud dextrose agar (SAB), 20–24 hours prior to the test. Colonies were suspended in saline, the concentration adjusted to a 0.5 McFarland standard, and then diluted in media to a concentration of 1.0 x 10^6 cells/mL. Then, 100μL was added to each well of the cathelicidin dilution plate, giving a final inoculum density of 5 x 10^5 CFU/mL and cathelicidin concentration of 64-0.125μg/mL. Colony counts were performed on MHA/BA/SAB to confirm inoculum density. All plates were incubated at 35°C for 20–24 hours, depending on the strain.
# Colonies were counted and compared to the colony count of the starting inoculum.
# [8] = test system: Streptococcus agalactiae Clinical isolate - animal; test: microbe, parasite or virus in culture; format: cell-based; settings: clinical isolate - animal; read-out: MIC S. agalactiae
# Method in brief: (§2)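 MIC defined as lowest peptide level preventing visible growth after 20–24 h at 35°C. Candida tested in RPMI-1640 MOPS; bacteria in Mueller Hinton broth, optionally with 10% lysed horse blood and/or divalent cations. Final peptide range 64-0.125 μg/mL, starting inoculum 5 x 10^5 CFU/mL, per CLSI M07-A/M26A.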
# [9] = test system: Streptococcus pneumoniae ATCC 49619; test: microbe, parasite or virus in culture; format: cell-based; settings: ATCC 49619; read-out: MIC S. pneumoniae ATCC
# Method in brief: as §2
# [10] = test system: Streptococcus agalactiae ATCC 12386; test: microbe, parasite or virus in culture; format: cell-based; settings: ATCC 12386; read-out: MIC S. agalactiae ATCC
# Method in brief: as §2
# [11] = test system: Staphylococcus aureus clinical isolate – animal, penicillin-resistant (PRSA); format: cell-based; settings: clinical isolate – animal, penicillin-resistant (PRSA)
# Method in brief: as §2
# [12] = test system: Staphylococcus aureus clinical isolate – animal, methicillin-resistant (MRSA); format: cell-based; settings: clinical isolate – animal, methicillin-resistant
# Method in brief: as §2
# [13] = test system: six bacteria (S. aureus, E. coli, P. aeruginosa; ATCC and clinical isolate); format: cell-based; settings: synthesized mature peptide; antimicrobial screening Phase I; Y/N summary over bacteria tested, broth microdilution
# Method in brief: as §1
# [14] = clinical isolate, MHB without cations, 5 x 10^5 CFU/mL, 35°C 20–24 hours, duplicate
# [15] = clinical isolate, superscript value, cation-adjusted Mueller Hinton broth
# [16] = clinical isolate, value in brackets, 99.9% reduction in CFU/mL
structure (smiles),measurement,setting,value
CC[C@H](C)[C@H](NC(=O)[C@H](CCCCN)NC(=O)CNC(=O)[C@H](CC(C)C)NC(=O)CNC(=O)[C@H](CCC(N)=O)NC(=O)CNC(=O)[C@H](CC(C)C)NC(=O)[C@@H]1CCCN1C(=O)[C@H](CCCCN)NC(=O)[C@H](CCSC)NC(=O)[C@H](CC(C)C)NC(=O)[C@H](CCCCN)NC(=O)[C@H](CCCCN)NC(=O)[C@H](CCCCN)NC(=O)CNC(=O)CNC(=O)[C@H](CCCNC(=N)N)NC(=O)[C@@H](N)CCCCN)C(=O)N[C@@H](CC(C)C)C(=O)N[C@@H](CCCCN)C(=O)N[C@@H](Cc1c[nH]cn1)C(=O)N[C@@H](Cc1ccccc1)C(=O)N[C@@H](CC(N)=O)C(=O)N[C@H](C(=O)N[C@@H](CC(=O)O)C(=O)N[C@@H](Cc1ccccc1)C(=O)N[C@@H](CS)C(=O)NCC(=O)N[C@@H](CC(N)=O)C(=O)N[C@@H](CS)C(=O)O)[C@@H](C)CC [MAP11] (H-KRGGKKKLMKPLGQGLGKILKHFNIDFCGNC-OH; N-terminus and C-terminus assumed),Number of hours to cause a significant reduction in log CFU/mL of S. aureus ATCC (p < 0.05),S. aureus ATCC 29213; 0.5x MIC,4 hours
same,Number of hours to cause a significant reduction in log CFU/mL of S. aureus ATCC (p < 0.05),S. aureus ATCC 29213; 2x MIC,2 hours
same,Number of hours to cause a significant reduction in log CFU/mL of S. aureus ATCC (p < 0.05),S. aureus ATCC 29213; MIC,4 hours
same,MIC,[1],>18.6 µM
same,MIC S. aureus ATCC,[2]; ATCC 29213,16 µg/mL
same,MIC in the presence of cations S. aureus ATCC,"[2]; superscript value, cation-adjusted Mueller Hinton broth (calcium and magnesium)",32 µg/mL
same,MBC S. aureus ATCC,"[2]; value in brackets, 99.9% reduction in CFU/mL relative to starting inoculum",32 µg/mL
same,MBC S. aureus,[3]; clinical isolate - animal,9.3 µM
same,MIC,"[3]; clinical isolate - animal, read-out: MIC S. aureus",9.3 µM
same,MIC,"[3]; clinical isolate - animal, read-out: MIC in the presence of cations S. aureus",4.6 µM
same,MIC S. aureus,[3]; [14],32 µg/mL
same,MIC in the presence of cations S. aureus,[3]; [15],16 µg/mL
same,MBC S. aureus,[3]; [16],32 µg/mL
same,MIC,[4],>18.6 µM
same,MBC E. coli,[5]; clinical isolate - animal,9.3 µM
same,MIC,[5]; clinical isolate - animal,9.3 µM
same,MIC in the presence of cations E. coli,[5]; clinical isolate - animal,18.6 µM
same,MIC E. coli,[5]; [14],32 µg/mL
same,MIC in the presence of cations E. coli,[5]; [15],64 µg/mL
same,MBC E. coli,[5]; [16],32 µg/mL
same,MBC E. coli ATCC,[6]; ATCC 25922,18.6 µM
same,MIC,"[6]; ATCC 25922, read-out: MIC E. coli ATCC",9.3 µM
same,MIC,"[6]; ATCC 25922, read-out: MIC in the presence of cations E. coli ATCC",9.3 µM
same,MIC E. coli ATCC,"[6]; MHB without cations, 5 x 10^5 CFU/mL, 35°C 20–24 hours, duplicate",32 µg/mL
same,MIC in the presence of cations E. coli ATCC,"[6]; superscript value, cation-adjusted Mueller Hinton broth",32 µg/mL
same,MBC E. coli ATCC,"[6]; value in brackets, 99.9% reduction in CFU/mL",64 µg/mL
same,Antifungal (MIC <64ug/mL),[7],N (Antifungal (MIC <64ug/mL))
same,MIC,[8],>18.6 µM
same,MIC,[9],>18.6 µM
same,MIC,[10],>18.6 µM
same,MBC PRSA,[11],4.6 µM
same,MIC PRSA,[11],4.6 µM
same,MBC MRSA,[12],9.3 µM
same,MIC MRSA,[12],9.3 µM
same,Antibacterial (MIC <64ug/mL),[13],Y (Antibacterial (MIC <64ug/mL))

# Source: publication PMC12006171, “Marsupial cathelicidins: characterization, antimicrobial activity and evolution in this unique mammalian lineage” (Frontiers in Immunology, 2025)
